Experimental findings from a melting point compilation (Tetko et al.; mined from patent text by program, amines drawn as free bases though some values may be those of a salt) are described below.

Structures are written as SMILES.

As for `COc1ccc(-c2nc(C(=O)c3ccc(F)cc3)c[nH]2)cc1`, the melting point (as a rule, the temperature, or range, at which the solid turns liquid) is 245 to 247 °C.
Regarding `CN1CCC(C(=NNc2ccc(F)cc2)c2ccccc2F)CC1`, the melting point lay in the range of 125 to 126 °C.
The same measure for `CCCc1nnc2n1N=C(c1ccc([N+](=O)[O-])cc1)c1cc(OC)c(Br)cc1C2`: 238 to 240 °C.
Take `O=C(O)c1ccccc1OC(F)(F)C(F)F`: the melting point lay within 158 to 160 °C.
`CC1(C)CC(=O)C(S(=O)Cc2ccc(F)cc2)=C(O)C1` (configuration not stated) showed a melting point of 122 to 125 °C.
With `CN(C)C(=NC1CCCCC1)C(N)=S` the figure was 116 to 120 °C; with `CCCOc1ccc(O)cc1OC`, 54 to 56 °C; with `N#CN=C(N)Cc1ccc2c(c1)Nc1nccnc1S2`, 218 to 219 °C.
With `O=CNC1=NN(c2ccccc2)C(c2ccccc2)C1` (configuration not stated) the figure was 158 to 160 °C; with `COc1ccc(-c2cnc(N)c(Sc3cc(C(F)(F)F)cc(C(F)(F)F)c3)n2)cc1`, 136 to 138 °C.
With `CCOc1ccc2c(c1)C(C)(c1cccc(O)c1)C(=O)N2S(=O)(=O)c1ccc(C(=O)NC(C)(C)C)cc1` (configuration not stated) the figure was 196 °C; with `CC(C)(C)c1nc(N)nc(C(C)(C)C)c1O`, 92 to 93 °C.
`OCCNc1nc(NCc2ccccc2)c2ncc(Nc3ncncn3)cc2n1` came in with a melting point of 202 to 203 °C.
As to `CCOC(=O)c1cc(-c2csc(N)n2)[nH]n1`, the melting point fell in the range of 205 to 207 °C.
The same measure for `CCCCC(=O)NC(C(=O)OCc1ccccc1)C(C)C` (configuration not stated): 118 to 127 °C; for `CC[C@@H]1N(c2ccc(C#N)c(Cl)c2C)C(=O)C[C@]1(C)O`: 156 to 158 °C; for `CCCc1nc(C)n2cnnc2c1Cc1ccc(-c2ccccc2C#N)cc1`: 153 °C.
The same measure for `CCCCCCO[C@H](C)C(=O)Oc1ccc(C(=O)O)cc1`: 67 to 72 °C; for `COc1ccc(C(=O)c2ccccc2F)c(O)c1Br`: 127 to 129 °C; for `CC12CC3CC(C)(C1)CC(NC(=O)CCl)(C3)C2`: 107 °C.
The same measure for `Clc1ccc([C@H]2Cc3cnc(Nc4ccccc4)nc3-c3ccccc32)cc1Cl`: 156 to 157 °C.
For the molecule `COc1ccc(COc2cccc(C=C(C=O)C(C=O)=Cc3cccc(OCc4ccc(OC)cc4)c3)c2)cc1`, the melting point lay within 117 to 119 °C.
The molecule `Cc1cc(-c2nc3cccnn3c2-c2ccnc(NC(=O)c3ccsc3)c2)ccc1F` displayed a melting point of 217 to 218 °C.
The same measure for `Nc1c(F)c(N2CCCCCC2)c(F)c2c1c(=O)c(C(=O)O)cn2C1CC1`: 234 to 236 °C; for `COc1ccc(C(=O)Nc2c(C)c(C)c3c(c2C)C(c2ccccc2)C(C)(C)O3)cc1` (configuration not stated): 190 to 192 °C; for `CCCCc1nc(C2CCCCC2)nn1Cc1ccc(-c2ccccc2-c2nnn[nH]2)cc1`: 125 to 127 °C.
`CC(C)C[C@@H](CC(=O)O)NC(=O)[C@@H](CS)C(F)(F)F` returned a melting point of 155 to 156 °C.
With `CC(C)(C)OC(=O)N1CCN(C(=O)N2CC(=O)Nc3ccccc32)CC1` the figure was 166 to 167 °C; with `COc1ccc(-c2cc(=O)n(CC3CC3)nc2-c2ccc(OC)c(F)c2)cc1F`, 142 to 143 °C.
The same measure for `CSc1c(C(Cc2ccc(F)cc2)C(=O)O)ccc2c3ccccc3n(Cc3ccc(F)cc3)c12` (configuration not stated): 90 to 94 °C; for `O=C(NCc1ccncc1)c1cc2ccnc(N(Cc3ccccc3)Cc3ccccc3)c2[nH]1`: 119 to 120 °C; for `O=C(CCC(C(=O)O)N1C(=O)c2cccc(NCc3ccco3)c2C1=O)Nc1ccccc1` (configuration not stated): 146 to 148 °C.
The same measure for `COc1cc(C(=O)C(Br)CCC2CCCCC2)c(OC)cc1C` (configuration not stated): 75 to 77 °C; for `CC(C)CCc1sc(NC(=O)c2cc([N+](=O)[O-])cn2C)nc1C(=O)O`: 296 to 300 °C; for `COC1=CC2=CCC3C4CC(C)C(=O)C4(C)CCC3C2(C)CC1` (configuration not stated): 149 to 167 °C.
Molecule `CCCCn1c(=O)c2c(ncn2S(=O)(=O)c2cccc([N+](=O)[O-])c2)n(CCCC)c1=O` gave a melting point of 178 to 179 °C.
The same measure for `COc1cc(N2CCN(C)CC2)c2oc(C(=O)Nc3ccc(N4CCN(C(=O)CCO)CC4)cc3)cc(=O)c2c1`: 195 to 197 °C; for `CCCc1cn(Cc2ccc(C(=O)NS(=O)(=O)c3ccccc3Cl)cc2OC)c2cc(CCCC(=O)N(C)C)ccc12`: 137 to 138 °C; for `O=C(NCc1ccc(Cl)cc1)c1cc2c3c(cc(CN4CCOCC4)cn3c1=O)CCC2`: 200 to 201 °C.
`CC(C)CCNC(=O)c1ccccc1-c1ccccc1CNC(=O)OCc1ccccc1` displayed a melting point of 112 °C.
With `COc1cccc(OCC2CC2)c1-c1cc(C(=O)C2(C(=O)O)C3CC4CC(C3)CC2C4)nn1-c1ccnc2cc(Cl)ccc12` (configuration not stated) the figure was 200 °C; with `N#CCCCSc1nccc(NC(=S)NCC(F)(F)F)n1`, 125 to 126 °C; with `CC(C)(C)c1cc(C(=O)c2ccoc2)cc2c1OCC2(C)C`, 120 to 121 °C.
The same measure for `COc1ccc(-c2nc(C)c(C)nc2-c2ccc(OC)cc2)cc1`: 106 to 108 °C; for `Cc1cc2[nH]c3ccncc3c(=O)n2n1`: > 300 °C; for `CC(C)(C)OC(=O)c1ccc(C#Cc2cnc3nc(NC(=O)C(C)(C)C)nc(O)c3c2)cc1`: > 250 °C.
The same measure for `CCOC(=O)c1cc(=O)c2c(OCCn3c(=O)sc4ccc(Cl)cc43)cccc2o1`: 177 to 178 °C; for `CCOC(=O)c1csc(NC(c2ccccc2)(c2ccccc2)c2ccccc2)n1`: 140 to 141 °C.
Molecule `C1=C(CCC2=Cc3ccccc32)c2ccccc21` registered a melting point of 86 to 87 °C.
The same measure for `CNCC(O)c1cccc(Cl)c1` (configuration not stated): 95.5 to 97 °C.
The same measure for `CC(C)(C)NC(=O)NC(Cc1ccccc1)C(=O)Nc1c(F)cc(F)cc1F` (configuration not stated): 205 to 206 °C; for `COc1ccc(OC)c(Sc2nc3c(N)ncnc3n2CCC=C(C)C)c1`: 148 to 150 °C; for `COc1ccc2c(c1)cc(C(=O)c1ccc(C)cc1)n2C`: 149 to 151 °C.
The molecule `CCOC(=O)c1c(C(F)(F)F)nc(C(F)F)c(C(=O)OC)c1NCC#N` came in with a melting point of 87 to 89 °C.
With `O=S1(=O)N=Cc2ccccc2O1` the figure was 44 to 47 °C; with `CCCCn1c(=O)n(CCC(C)(O)C#CCN(CCC)CCC)c(=O)c2c1ncn2CCC` (configuration not stated), 101 °C.
Molecule `Cc1nc(C)c(Cl)c(NCc2nccc(SCCOCCn3c([N+](=O)[O-])cnc3C)c2C)n1` had a melting point of 160 to 163 °C.
With `COc1ccc(NCC(O)CO)cc1` (configuration not stated), the melting point lay within 151 to 153 °C.
The molecule `Cc1nc(N2CCC(Cc3ccc(C(F)(F)F)cc3)C2=O)sc1C(=O)NCc1ccccc1` (configuration not stated) had a melting point of 174 to 175 °C.
With `COc1ccc(N2CCN(c3ccc(N)nc3-c3ccc(C)cc3)CC2)cc1` the figure was 193 to 200 °C.
The same measure for `CC(C)(C)OC(=O)N1CCN(c2ccc(C#N)c(F)c2)CC1`: 130 to 131 °C; for `CCc1cc2c(s1)-n1c(nnc1CNC(=O)c1cc3ccccc3n1CC(=O)O)CN=C2c1ccccc1Cl`: 222 to 223 °C; for `COc1cc2c(cc1[N+](=O)[O-])NC(=O)CN(C(=O)C(F)(F)F)C2`: 204 to 205 °C.
With `C=C[C@@H]1CCC(=O)N1C(=O)[C@H](Cc1ccccc1)O[Si](C)(C)C(C)(C)C` the figure was 92 to 93.5 °C.
Molecule `O=C(CBr)c1cc(O)c(O)c([N+](=O)[O-])c1` returned a melting point of 138 to 140 °C.
For the molecule `CC(=O)Nc1c(-c2ccccc2)c(=O)[nH]c2cc(Cl)ccc12`, the melting point fell in the range of 275 to 277 °C.
With `COc1cccc(NC(=O)C(N)=O)c1C(N)=O` the figure was 252 to 255 °C.
The same measure for `CCC1c2cccn2-c2ccc(F)cc2N1S(=O)(=O)c1cc(C)c(O)c(C)c1` (configuration not stated): 216 to 218 °C; for `COC(=O)c1c(Br)ccc2nn(C)c(C)c12`: 109 to 111 °C.
Regarding `CCOC(=O)C1=C(C)NC(C)=C(C(=O)OCCN2CCN(C(c3ccc(C)cc3)c3ccc(C)cc3)CC2)C1c1cccc(Cl)c1` (configuration not stated), the melting point is 79 to 81 °C.
Regarding `CCC(CC)Nc1nc2c(c(-c3c(C)cc(C)cc3C)cn2C)c(=O)n1C`, the melting point is 174 to 176 °C.
The molecule `CC(C)[C@H](NC(=O)[C@H](Cc1ccccc1)NC(=O)c1ccccc1)C(=O)O` yielded a melting point of 191 °C.
Consider `Nc1nc2c(ncn2CCC(COC=O)COC=O)c(=O)[nH]1`, for which the melting point lay in the range of 195 to 198 °C.
Consider `CC(C)[Si]1(C(C)C)C([Si](C)(C)C)=C(c2ccccc2)C(c2ccccc2)=C1[Si](C)(C)C`, for which the melting point stood at 107 °C.
The same measure for `CN(C)NC(=O)N(C)C1c2ccccc2Oc2ccccc21`: 120 to 123 °C.
As to `CC(=O)Oc1ccc(-c2ccc(C(C)=O)cc2)cc1Br`, the melting point is 100 °C.
With `Cc1ccc(F)c2c1N(C(c1ccccc1)c1ccccc1)C(=O)C21COc2cc3c(cc21)CCO3` (configuration not stated) the figure was 81 to 82 °C; with `CC(C)(C)OC(=O)C=Cc1cc(Br)cc(Cc2cccnc2)c1`, 97 to 99 °C; with `CCOP(=O)(Cc1cccc2cccc(CP(=O)(OCC)OCC)c12)OCC`, 55 to 56 °C.
The same measure for `CC(C)c1cc(OCCOCc2ccccc2)cc2c1C(=O)N(CSc1ccccc1)S2(=O)=O`: 98 to 99 °C.
The same measure for `COc1cc(C=CCN2CCc3nc(N)sc3CC2)cc(OC)c1`: 114 to 119 °C; for `Cc1nc(-n2ccccc2=O)sc1C(=O)NCc1ccccc1`: 180 to 182 °C.
`Cc1ccc(OCC(=O)c2ccccc2)cc1`: the melting point was 65 °C.
`CCc1c(C)[nH]c(=O)c(CC)c1Oc1cc(C)cc(C)c1` registered a melting point of 180 °C.
Regarding `CC(=O)c1ccc(Oc2ccc(I)cc2)cc1`, the melting point fell in the range of 99 to 101 °C.
`COc1cc(Nc2c(C#N)cnc3cc(C#CCN4CCN(C)CC4)sc23)c(Cl)cc1Cl` showed a melting point of 172 to 173 °C.
With `CC(Oc1ccc(Oc2ccc(C(F)(F)F)cc2)cc1)C(=O)OCS(C)(=O)=O` (configuration not stated) the figure was 87 to 88 °C.
